Broadly, the EC50 is the midpoint of the concentration-response curve. A high value points to a less potent agent. A word on the IC50: it is the concentration that gives 50% inhibition. A low value points to inhibition by little substance.

Molecules are shown by their SMILES.

Experiment [1] concerns the target T1, Caspase-3 (Homo sapiens, UniProt P42574).
T1 sequence (P42574 whole entry): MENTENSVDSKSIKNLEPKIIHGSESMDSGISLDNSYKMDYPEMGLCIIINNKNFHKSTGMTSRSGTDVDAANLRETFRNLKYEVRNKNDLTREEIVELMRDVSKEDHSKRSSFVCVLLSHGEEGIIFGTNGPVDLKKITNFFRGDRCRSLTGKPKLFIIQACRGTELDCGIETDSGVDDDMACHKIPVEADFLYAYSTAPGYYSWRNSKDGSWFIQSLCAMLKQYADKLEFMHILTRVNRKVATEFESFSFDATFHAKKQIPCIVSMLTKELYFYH
Briefly: Induction of procaspase 3 activity (unknown origin) using Ac-DEVD-pNa as substrate after 2 hrs.

For experiment [2], the system named is SK-N-SH. Briefly: Antiproliferative activity against human SK-N-SH cells after 72 hrs by MTT assay. It counts as functional, cell-based. In general terms: Formazan colour is commonly taken as a measure of viable cells.
The test system of experiment [3] is HT-29. Briefly: Antiproliferative activity against human HT-29 cells after 72 hrs by MTT assay. It counts as functional, cell-based. The conditions noted are these: HT-29, 72 h.
The target of experiment [4] is T2, Caspase-3 (Homo sapiens) (UniProt P42574).
T2 sequence (whole entry): T1 sequence (P42574 whole entry)
Put plainly: Ratio of PAC1 EC50 to compound EC50 for procaspase 3 activity (unknown origin).

The nature of experiment [5]: Antiproliferative activity against human MKN45 cells after 72 hrs by MTT assay. It counts as functional, cell-based. Particulars: MKN-45, 72 h.
Experiment [6] has as its system MDA-MB-231. Put plainly: Antiproliferative activity against human MDA-MB-231 cells after 72 hrs by MTT assay. Particulars: MDA-MB-231, 72 h.
In experiment [7] the test system is NCI-H226. Briefly: Antiproliferative activity against human NCI-H226 cells after 72 hrs by MTT assay. Particulars: NCI-H226, 72 h. It counts as functional, cell-based.

Take `CCN(CC)Cc1ccc2nc(NC(=O)N/N=C/c3ccc(OCc4csc(Cc5ccc6c(c5)OCO6)n4)cc3O)sc2c1`: the EC50 in experiment [1] came to 250 nM. Also, the concentration for half-maximal inhibition (IC50) in experiment [2] was 480 nM; in experiment [3], 720 nM; in experiment [5], 510 nM; in experiment [6], 550 nM; in experiment [7], 140 nM. Besides, the Ratio EC50 in experiment [4] is 16.

Compound `CCN(CC)Cc1ccc2nc(NC(=O)N/N=C/c3ccc(OCc4ccc(Cl)cc4)cc3O)sc2c1` yielded a concentration giving a half-maximal response (EC50) in experiment [1] of 4960 nM. For the same compound, the half-inhibitory concentration (IC50) in experiment [2] came out at 740 nM; in experiment [3], 1020 nM; in experiment [5] it was 540 nM; in experiment [6], 610 nM; in experiment [7], 430 nM.

Regarding `CCN(CC)Cc1ccc2nc(NC(=O)N/N=C/c3ccc(OCc4ccc(C(C)(C)C)cc4)cc3O)sc2c1`, in experiment [1], the concentration giving a half-maximal response (EC50) is 1420 nM. For the same compound, the half-inhibitory concentration (IC50) in experiment [2] was determined as 480 nM; in experiment [3] it was 770 nM; in experiment [5], 500 nM; in experiment [6], 980 nM; in experiment [7], 160 nM. In addition, the Ratio EC50 in experiment [4] came to 2.9.

The values are drawn from ChEMBL document CHEMBL3351345, “Design, synthesis, and structure-activity relationships of novel benzothiazole derivatives bearing the ortho-hydroxy N-carbamoylhydrazone moiety as potent antitumor agents” (Eur J Med Chem, 2014).
